Assay: xn = mol fraction of the nth substance listed
Conditions: 101 kPa, Liquid; for speed of sound: Single path-length method

COC(C)(C)C [2-methoxy-2-methylpropane] + c1ccccc1
Conditions	mass density [kg/m3]	speed of sound [m/s]
305.65 K, x1 = 0.052	856.117	–
305.65 K, x1 = 0.111	846.045	–
305.65 K, x1 = 0.202	831.061	–
305.65 K, x1 = 0.303	815.461	–
305.65 K, x1 = 0.397	801.707	–
305.65 K, x1 = 0.5	787.314	–
305.65 K, x1 = 0.596	774.518	–
305.65 K, x1 = 0.698	761.485	–
305.65 K, x1 = 0.791	750.234	1047.1
305.65 K, x1 = 0.902	737.34	1021.7
305.65 K, x1 = 0.95	731.914	1010.9
305.65 K, x1 = 1	726.444	1002.4
308.15 K, x1 = 0.052	853.44	1234.9
308.15 K, x1 = 0.111	843.388	1216.5
308.15 K, x1 = 0.202	828.417	1188.9
308.15 K, x1 = 0.303	812.827	1160
308.15 K, x1 = 0.397	799.075	1134.1
308.15 K, x1 = 0.5	784.683	1106.9
308.15 K, x1 = 0.596	771.88	1082.4
308.15 K, x1 = 0.698	758.841	1057.2
308.15 K, x1 = 0.791	747.582	1035.7
308.15 K, x1 = 0.902	734.673	1010.3
308.15 K, x1 = 0.95	729.241	999.43
308.15 K, x1 = 1	723.763	990.99
310.65 K, x1 = 0.052	850.759	1223.5
310.65 K, x1 = 0.111	840.726	1205.2
310.65 K, x1 = 0.202	825.767	1177.5
310.65 K, x1 = 0.303	810.187	1148.8
310.65 K, x1 = 0.397	796.438	1122.8
310.65 K, x1 = 0.5	782.044	1095.5
310.65 K, x1 = 0.596	769.234	1071.2
310.65 K, x1 = 0.698	756.187	1046
310.65 K, x1 = 0.791	744.918	1024.3
310.65 K, x1 = 0.902	731.995	998.9
310.65 K, x1 = 0.95	726.556	988.05
310.65 K, x1 = 1	721.069	979.62
313.15 K, x1 = 0.052	848.07	1212
313.15 K, x1 = 0.111	838.056	1193.8
313.15 K, x1 = 0.202	823.111	1166.3
313.15 K, x1 = 0.303	807.533	1137.4
313.15 K, x1 = 0.397	793.792	1111.5
313.15 K, x1 = 0.5	779.391	1084.2
313.15 K, x1 = 0.596	766.575	1059.8
313.15 K, x1 = 0.698	753.517	1034.6
313.15 K, x1 = 0.791	742.24	1013
313.15 K, x1 = 0.902	729.301	987.61
313.15 K, x1 = 0.95	723.852	976.7
313.15 K, x1 = 1	718.357	968.16
315.65 K, x1 = 0.052	845.378	1200.6
315.65 K, x1 = 0.111	835.381	1182.5
315.65 K, x1 = 0.202	820.447	1155
315.65 K, x1 = 0.303	804.877	1126.2
315.65 K, x1 = 0.397	791.135	1100.3
315.65 K, x1 = 0.5	776.733	1073
315.65 K, x1 = 0.596	763.908	1048.6
315.65 K, x1 = 0.698	750.84	1023.3
315.65 K, x1 = 0.791	739.55	1001.7
315.65 K, x1 = 0.902	726.593	976.23
315.65 K, x1 = 0.95	721.138	965.31
315.65 K, x1 = 1	715.636	956.8
318.15 K, x1 = 0.052	842.684	1189.4
318.15 K, x1 = 0.111	832.703	1171.3
318.15 K, x1 = 0.202	817.778	1143.8
318.15 K, x1 = 0.303	802.213	1115
318.15 K, x1 = 0.397	788.472	1089.2
318.15 K, x1 = 0.5	774.062	1061.8
318.15 K, x1 = 0.596	761.226	1037.4
318.15 K, x1 = 0.698	748.147	1012.1
318.15 K, x1 = 0.791	736.847	990.48
318.15 K, x1 = 0.902	723.87	964.92
320.65 K, x1 = 0.052	840.006	1178.4
320.65 K, x1 = 0.111	830.019	1160.1
320.65 K, x1 = 0.202	815.102	1132.6
320.65 K, x1 = 0.303	799.541	1103.9
320.65 K, x1 = 0.397	785.8	1078.1
320.65 K, x1 = 0.5	771.341	1050.4
320.65 K, x1 = 0.596	758.536	1026.2
320.65 K, x1 = 0.698	745.444	1001
320.65 K, x1 = 0.791	734.13	979.25
320.65 K, x1 = 0.902	721.133	953.72
323.15 K, x1 = 0.052	837.364	1168
323.15 K, x1 = 0.111	827.342	1149.2
323.15 K, x1 = 0.202	812.432	1121.7
323.15 K, x1 = 0.303	796.876	1093
323.15 K, x1 = 0.397	783.138	1067.2
323.15 K, x1 = 0.5	768.725	1040
323.15 K, x1 = 0.596	755.841	1015.2
323.15 K, x1 = 0.698	742.756	990.11
323.15 K, x1 = 0.791	731.411	968.17
323.15 K, x1 = 0.902	718.4	942.69
323.15 K, x1 = 0.95	712.917	931.73
323.15 K, x1 = 1	707.381	922.97

— the NIST ThermoML archive (doi:10.1007/s10765-007-0223-x)
